As usually defined, the inhibition is the percentage by which the read-out fell short of the control. A word on the IC50: it is the point on the concentration scale where inhibition reaches its midpoint.

The text below walks through data of ChEMBL document CHEMBL5625232, “Development of selective class I protein arginine methyltransferase inhibitors through fragment-based drug design approach” (Eur J Med Chem, 2023).

Calls of active or inactive are those of the source. The calls are words filed in the database; no cut-off is given here.

Assay [1] concerns the target T1, Histone-arginine methyltransferase CARM1 (Homo sapiens) (UniProt Q86X55).
T1 sequence (whole entry): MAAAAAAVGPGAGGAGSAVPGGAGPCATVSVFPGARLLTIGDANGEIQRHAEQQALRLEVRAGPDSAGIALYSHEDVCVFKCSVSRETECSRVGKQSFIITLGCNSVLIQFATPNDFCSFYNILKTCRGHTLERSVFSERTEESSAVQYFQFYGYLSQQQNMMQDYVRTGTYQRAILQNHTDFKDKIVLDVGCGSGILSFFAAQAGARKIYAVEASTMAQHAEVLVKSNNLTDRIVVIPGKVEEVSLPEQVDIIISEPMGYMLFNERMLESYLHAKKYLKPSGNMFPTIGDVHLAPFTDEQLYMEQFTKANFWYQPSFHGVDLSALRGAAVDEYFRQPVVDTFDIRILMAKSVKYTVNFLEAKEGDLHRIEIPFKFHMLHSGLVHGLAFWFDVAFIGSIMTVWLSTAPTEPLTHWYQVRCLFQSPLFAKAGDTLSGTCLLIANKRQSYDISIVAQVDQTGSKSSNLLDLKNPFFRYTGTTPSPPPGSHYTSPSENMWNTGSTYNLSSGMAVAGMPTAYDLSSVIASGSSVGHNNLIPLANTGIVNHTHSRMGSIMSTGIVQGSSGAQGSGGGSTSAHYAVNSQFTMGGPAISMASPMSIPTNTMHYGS
In words: Displacement of 3H-SAM from human PRMT4 at 50 uM in presence of substrate by SPA assay. For orientation: Displacement assays read how much labelled ligand stays bound in the presence of the test substance.

Assay [2] deals with T2, Histone-lysine N-methyltransferase SMYD3 (Homo sapiens) (UniProt Q9H7B4).
T2 sequence (whole entry): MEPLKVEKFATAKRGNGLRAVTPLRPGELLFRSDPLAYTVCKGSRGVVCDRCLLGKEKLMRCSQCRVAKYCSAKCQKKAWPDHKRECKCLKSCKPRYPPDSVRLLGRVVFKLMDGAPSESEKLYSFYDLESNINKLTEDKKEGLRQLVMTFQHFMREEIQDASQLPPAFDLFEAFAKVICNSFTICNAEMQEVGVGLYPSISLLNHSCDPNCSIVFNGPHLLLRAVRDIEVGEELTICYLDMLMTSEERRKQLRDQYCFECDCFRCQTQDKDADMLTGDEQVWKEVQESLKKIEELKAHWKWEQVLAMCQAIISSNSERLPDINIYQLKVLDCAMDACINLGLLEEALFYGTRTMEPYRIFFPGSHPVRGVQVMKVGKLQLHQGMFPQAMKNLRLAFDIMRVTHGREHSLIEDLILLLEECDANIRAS
In words: Displacement of 3H-SAM from SMYD3 (unknown origin) using biotinylated-MAP3K2 as substrate at 30 uM incubated for 45 mins by SPA assay relative to control.

Assay [3] has as its target Protein arginine N-methyltransferase 5 (Homo sapiens) (UniProt O14744). As to the kind of experiment: Displacement of 3H-SAM from human PRMT5 at 50 uM in presence of substrate by SPA assay.
Assay [4] concerns the target T3, Protein arginine N-methyltransferase 9 (Homo sapiens) (UniProt Q6P2P2).
T3 sequence (whole entry): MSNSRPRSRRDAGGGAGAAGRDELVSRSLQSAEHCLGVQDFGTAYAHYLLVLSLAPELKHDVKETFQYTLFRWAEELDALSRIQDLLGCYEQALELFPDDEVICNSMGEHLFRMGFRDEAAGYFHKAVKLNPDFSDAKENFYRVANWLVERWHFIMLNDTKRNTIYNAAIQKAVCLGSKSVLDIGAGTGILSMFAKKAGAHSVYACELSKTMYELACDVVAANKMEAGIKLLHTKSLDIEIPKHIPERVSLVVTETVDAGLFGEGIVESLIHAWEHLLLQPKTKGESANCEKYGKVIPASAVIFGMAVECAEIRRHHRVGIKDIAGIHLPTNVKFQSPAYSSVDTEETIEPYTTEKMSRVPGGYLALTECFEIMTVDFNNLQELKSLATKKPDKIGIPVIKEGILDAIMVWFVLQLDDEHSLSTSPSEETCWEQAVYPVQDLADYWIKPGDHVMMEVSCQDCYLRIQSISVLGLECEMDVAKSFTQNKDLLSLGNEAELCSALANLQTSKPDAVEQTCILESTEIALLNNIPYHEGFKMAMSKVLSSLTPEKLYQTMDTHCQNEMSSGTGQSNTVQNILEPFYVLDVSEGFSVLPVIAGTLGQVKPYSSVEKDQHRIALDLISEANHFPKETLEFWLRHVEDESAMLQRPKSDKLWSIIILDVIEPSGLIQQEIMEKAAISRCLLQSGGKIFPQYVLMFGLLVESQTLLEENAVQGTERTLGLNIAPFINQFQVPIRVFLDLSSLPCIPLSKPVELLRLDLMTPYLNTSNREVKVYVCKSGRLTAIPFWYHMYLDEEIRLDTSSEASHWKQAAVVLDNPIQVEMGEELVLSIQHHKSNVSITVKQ
As to the kind of experiment: Displacement of 3H-SAM from human PRMT9 at 50 uM in presence of substrate by SPA assay.

Assay [5] addresses T4, Protein arginine N-methyltransferase 8 (Homo sapiens, UniProt Q9NR22). In words: Displacement of 3H-SAM from human PRMT8 at 50 uM in presence of substrate by SPA assay.
Target sequence in this assay (Q9NR22 2-394 limits assumed): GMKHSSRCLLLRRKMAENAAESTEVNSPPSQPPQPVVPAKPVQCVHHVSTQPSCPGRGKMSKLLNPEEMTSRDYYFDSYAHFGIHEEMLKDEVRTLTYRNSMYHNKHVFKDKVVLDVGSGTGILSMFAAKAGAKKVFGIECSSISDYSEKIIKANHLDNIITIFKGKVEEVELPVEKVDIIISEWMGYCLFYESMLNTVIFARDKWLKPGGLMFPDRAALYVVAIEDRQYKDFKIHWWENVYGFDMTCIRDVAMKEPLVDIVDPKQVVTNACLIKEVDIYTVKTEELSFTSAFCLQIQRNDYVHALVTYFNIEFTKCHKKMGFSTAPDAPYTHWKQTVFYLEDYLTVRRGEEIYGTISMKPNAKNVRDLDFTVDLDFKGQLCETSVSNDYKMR
Assay [6] has as its target T5, Protein arginine N-methyltransferase 7 (Homo sapiens) (UniProt Q9NVM4).
T5 sequence (whole entry): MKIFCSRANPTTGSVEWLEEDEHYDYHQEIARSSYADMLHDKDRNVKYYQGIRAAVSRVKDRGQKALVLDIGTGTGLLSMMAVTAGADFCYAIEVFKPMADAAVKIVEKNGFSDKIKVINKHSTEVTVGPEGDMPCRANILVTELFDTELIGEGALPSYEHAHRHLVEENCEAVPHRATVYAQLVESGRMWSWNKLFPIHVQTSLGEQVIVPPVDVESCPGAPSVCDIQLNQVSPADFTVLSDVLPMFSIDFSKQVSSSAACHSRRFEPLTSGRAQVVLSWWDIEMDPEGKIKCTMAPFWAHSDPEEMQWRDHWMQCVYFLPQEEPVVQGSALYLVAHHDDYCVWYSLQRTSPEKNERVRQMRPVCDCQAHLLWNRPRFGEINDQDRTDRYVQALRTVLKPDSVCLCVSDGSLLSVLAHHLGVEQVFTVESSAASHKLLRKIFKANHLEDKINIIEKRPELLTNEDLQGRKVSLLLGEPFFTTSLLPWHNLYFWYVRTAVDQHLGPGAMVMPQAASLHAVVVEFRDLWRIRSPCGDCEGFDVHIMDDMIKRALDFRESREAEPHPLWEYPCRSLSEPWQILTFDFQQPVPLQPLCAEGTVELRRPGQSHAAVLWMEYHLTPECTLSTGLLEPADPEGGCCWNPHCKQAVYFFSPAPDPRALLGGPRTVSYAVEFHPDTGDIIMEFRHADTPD
As to the kind of experiment: Displacement of 3H-SAM from human PRMT7 at 50 uM in presence of substrate by SPA assay.

Assay [7] addresses T6, Protein arginine N-methyltransferase 3 (Homo sapiens, UniProt O60678). In words: Displacement of 3H-SAM from human PRMT3 at 50 uM in presence of substrate by SPA assay.
Target sequence in this assay (O60678 2-531 limits assumed): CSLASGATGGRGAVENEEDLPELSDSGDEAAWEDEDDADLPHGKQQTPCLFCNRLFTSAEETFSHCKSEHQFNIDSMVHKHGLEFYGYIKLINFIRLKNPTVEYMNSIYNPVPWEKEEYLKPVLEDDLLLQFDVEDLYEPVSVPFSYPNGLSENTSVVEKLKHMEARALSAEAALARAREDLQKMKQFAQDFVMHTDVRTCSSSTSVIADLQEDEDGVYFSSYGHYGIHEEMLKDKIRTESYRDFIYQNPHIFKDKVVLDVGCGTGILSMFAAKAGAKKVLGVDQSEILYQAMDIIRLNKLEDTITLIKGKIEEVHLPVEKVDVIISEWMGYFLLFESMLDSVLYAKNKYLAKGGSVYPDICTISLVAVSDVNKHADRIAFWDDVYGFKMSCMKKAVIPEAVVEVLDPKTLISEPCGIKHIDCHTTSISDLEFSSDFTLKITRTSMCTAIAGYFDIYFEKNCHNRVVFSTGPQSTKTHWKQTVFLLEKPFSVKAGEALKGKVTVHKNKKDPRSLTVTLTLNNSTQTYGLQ
Assay [8] has as its target Histone-lysine N-methyltransferase, H3 lysine-79 specific (Homo sapiens) (UniProt Q8TEK3). In words: Displacement of 3H-SAM from DOT1L (unknown origin) at 30 uM incubated for 1 hr in presence of substrate by SPA assay relative to control.
The target in assay [9] is T7, Histone-lysine N-methyltransferase SUV39H1 (Homo sapiens) (UniProt O43463).
T7 sequence (whole entry): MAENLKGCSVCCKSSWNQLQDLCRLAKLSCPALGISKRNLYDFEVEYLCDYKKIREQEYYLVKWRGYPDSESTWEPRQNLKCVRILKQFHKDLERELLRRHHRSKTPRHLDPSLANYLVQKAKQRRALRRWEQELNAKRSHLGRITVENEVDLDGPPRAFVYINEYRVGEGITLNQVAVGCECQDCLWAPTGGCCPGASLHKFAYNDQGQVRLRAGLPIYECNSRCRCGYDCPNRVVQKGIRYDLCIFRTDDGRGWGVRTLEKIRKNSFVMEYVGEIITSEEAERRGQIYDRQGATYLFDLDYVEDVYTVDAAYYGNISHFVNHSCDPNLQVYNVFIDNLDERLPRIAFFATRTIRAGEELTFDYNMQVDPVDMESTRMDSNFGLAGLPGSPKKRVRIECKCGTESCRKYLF
As to the kind of experiment: Displacement of 3H-SAM from SUV39H1 (unknown origin) using biotinylated-histone H3 peptide as substrate at 30 uM incubated for 45 mins by SPA assay relative to control.

The target in assay [10] is T8, Protein arginine N-methyltransferase 6 (Homo sapiens, UniProt Q96LA8). As to the kind of experiment: Displacement of 3H-SAM from human PRMT6 at 50 uM in presence of substrate by SPA assay.
Target sequence in this assay (Q96LA8 whole entry, looked up): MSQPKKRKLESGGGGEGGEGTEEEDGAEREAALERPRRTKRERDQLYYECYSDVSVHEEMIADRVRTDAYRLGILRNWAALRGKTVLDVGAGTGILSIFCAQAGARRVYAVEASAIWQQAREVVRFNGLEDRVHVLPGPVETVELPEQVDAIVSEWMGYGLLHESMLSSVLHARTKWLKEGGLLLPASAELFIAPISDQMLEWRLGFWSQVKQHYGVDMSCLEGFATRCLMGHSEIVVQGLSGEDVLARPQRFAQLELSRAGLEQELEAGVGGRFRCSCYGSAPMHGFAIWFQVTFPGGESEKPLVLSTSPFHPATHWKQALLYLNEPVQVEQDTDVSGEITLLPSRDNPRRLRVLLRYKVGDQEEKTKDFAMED
The target in assay [11] is T6, Protein arginine N-methyltransferase 3. As to the kind of experiment: Inhibition of PRMT3 (unknown origin).
Target sequence in this assay (O60678 whole entry): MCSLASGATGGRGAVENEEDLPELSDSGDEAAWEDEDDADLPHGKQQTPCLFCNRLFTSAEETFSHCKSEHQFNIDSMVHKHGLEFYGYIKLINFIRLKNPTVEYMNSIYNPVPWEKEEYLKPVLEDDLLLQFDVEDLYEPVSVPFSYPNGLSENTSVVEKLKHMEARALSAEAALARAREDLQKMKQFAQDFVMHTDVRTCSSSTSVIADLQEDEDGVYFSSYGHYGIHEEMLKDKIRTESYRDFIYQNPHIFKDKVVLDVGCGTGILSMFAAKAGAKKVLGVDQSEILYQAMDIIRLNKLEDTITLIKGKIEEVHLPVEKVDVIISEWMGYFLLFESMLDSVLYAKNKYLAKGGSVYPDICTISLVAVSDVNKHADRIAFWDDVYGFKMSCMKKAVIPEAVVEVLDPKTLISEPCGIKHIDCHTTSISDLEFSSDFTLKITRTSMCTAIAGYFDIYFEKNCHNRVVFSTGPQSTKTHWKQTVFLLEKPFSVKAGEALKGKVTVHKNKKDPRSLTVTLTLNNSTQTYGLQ
The target of assay [12] is Protein arginine N-methyltransferase 1 (Homo sapiens, UniProt Q99873). In words: Inhibition of PRMT1 (unknown origin).
The target of assay [13] is T8, Protein arginine N-methyltransferase 6. As to the kind of experiment: Inhibition of PRMT6 (unknown origin).
Target sequence in this assay (Q96LA8 whole entry): as the sequence (Q96LA8 whole entry, looked up) above
The target of assay [14] is T4, Protein arginine N-methyltransferase 8. As to the kind of experiment: Inhibition of PRMT8 (unknown origin).
Target sequence in this assay (Q9NR22 whole entry): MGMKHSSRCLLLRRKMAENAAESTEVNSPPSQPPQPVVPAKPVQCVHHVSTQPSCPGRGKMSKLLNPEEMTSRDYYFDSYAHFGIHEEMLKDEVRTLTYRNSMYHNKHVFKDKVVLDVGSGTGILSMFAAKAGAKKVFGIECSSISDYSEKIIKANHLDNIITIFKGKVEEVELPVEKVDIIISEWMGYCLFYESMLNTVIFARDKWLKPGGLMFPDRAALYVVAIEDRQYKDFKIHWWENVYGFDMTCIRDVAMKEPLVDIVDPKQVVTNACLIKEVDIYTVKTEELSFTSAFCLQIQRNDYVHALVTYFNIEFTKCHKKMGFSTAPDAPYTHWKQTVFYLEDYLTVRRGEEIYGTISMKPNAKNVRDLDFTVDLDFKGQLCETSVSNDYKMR
Assay [15] deals with T9, Histone-arginine methyltransferase CARM1 (Homo sapiens, UniProt Q86X55).
T9 sequence (Q86X55 whole entry): T1 sequence (whole entry)
As to the kind of experiment: Inhibition of PRMT4 (unknown origin).

Sequence of Protein arginine N-methyltransferase 5 (Homo sapiens) (O14744 whole entry): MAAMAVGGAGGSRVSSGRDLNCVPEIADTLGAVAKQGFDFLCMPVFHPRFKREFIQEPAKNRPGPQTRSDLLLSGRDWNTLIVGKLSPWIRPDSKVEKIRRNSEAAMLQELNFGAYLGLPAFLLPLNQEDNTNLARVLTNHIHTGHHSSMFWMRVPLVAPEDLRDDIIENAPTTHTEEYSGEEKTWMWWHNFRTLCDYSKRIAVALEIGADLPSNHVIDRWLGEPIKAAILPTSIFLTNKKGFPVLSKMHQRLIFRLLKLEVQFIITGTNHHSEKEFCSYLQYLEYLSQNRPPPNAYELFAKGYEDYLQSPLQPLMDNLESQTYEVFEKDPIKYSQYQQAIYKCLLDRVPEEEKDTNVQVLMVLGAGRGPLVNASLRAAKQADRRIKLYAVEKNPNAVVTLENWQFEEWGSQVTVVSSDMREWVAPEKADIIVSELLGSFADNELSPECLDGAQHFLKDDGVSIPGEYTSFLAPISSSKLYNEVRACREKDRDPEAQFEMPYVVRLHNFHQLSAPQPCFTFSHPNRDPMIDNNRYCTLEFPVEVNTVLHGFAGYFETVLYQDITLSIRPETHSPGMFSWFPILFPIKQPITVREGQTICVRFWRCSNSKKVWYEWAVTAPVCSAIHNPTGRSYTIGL
Sequence of Protein arginine N-methyltransferase 1 (Q99873 whole entry): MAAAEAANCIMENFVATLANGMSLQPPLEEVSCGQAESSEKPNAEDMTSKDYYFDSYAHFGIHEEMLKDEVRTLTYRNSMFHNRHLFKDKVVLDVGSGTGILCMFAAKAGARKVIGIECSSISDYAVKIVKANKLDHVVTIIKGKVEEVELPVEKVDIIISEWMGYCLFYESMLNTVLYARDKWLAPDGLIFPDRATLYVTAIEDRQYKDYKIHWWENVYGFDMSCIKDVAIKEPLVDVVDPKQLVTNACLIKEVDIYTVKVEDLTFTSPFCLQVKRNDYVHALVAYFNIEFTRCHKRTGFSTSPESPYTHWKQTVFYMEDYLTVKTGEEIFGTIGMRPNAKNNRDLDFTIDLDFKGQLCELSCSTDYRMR
Sequence of Histone-lysine N-methyltransferase, H3 lysine-79 specific (Homo sapiens) (Q8TEK3 whole entry, looked up): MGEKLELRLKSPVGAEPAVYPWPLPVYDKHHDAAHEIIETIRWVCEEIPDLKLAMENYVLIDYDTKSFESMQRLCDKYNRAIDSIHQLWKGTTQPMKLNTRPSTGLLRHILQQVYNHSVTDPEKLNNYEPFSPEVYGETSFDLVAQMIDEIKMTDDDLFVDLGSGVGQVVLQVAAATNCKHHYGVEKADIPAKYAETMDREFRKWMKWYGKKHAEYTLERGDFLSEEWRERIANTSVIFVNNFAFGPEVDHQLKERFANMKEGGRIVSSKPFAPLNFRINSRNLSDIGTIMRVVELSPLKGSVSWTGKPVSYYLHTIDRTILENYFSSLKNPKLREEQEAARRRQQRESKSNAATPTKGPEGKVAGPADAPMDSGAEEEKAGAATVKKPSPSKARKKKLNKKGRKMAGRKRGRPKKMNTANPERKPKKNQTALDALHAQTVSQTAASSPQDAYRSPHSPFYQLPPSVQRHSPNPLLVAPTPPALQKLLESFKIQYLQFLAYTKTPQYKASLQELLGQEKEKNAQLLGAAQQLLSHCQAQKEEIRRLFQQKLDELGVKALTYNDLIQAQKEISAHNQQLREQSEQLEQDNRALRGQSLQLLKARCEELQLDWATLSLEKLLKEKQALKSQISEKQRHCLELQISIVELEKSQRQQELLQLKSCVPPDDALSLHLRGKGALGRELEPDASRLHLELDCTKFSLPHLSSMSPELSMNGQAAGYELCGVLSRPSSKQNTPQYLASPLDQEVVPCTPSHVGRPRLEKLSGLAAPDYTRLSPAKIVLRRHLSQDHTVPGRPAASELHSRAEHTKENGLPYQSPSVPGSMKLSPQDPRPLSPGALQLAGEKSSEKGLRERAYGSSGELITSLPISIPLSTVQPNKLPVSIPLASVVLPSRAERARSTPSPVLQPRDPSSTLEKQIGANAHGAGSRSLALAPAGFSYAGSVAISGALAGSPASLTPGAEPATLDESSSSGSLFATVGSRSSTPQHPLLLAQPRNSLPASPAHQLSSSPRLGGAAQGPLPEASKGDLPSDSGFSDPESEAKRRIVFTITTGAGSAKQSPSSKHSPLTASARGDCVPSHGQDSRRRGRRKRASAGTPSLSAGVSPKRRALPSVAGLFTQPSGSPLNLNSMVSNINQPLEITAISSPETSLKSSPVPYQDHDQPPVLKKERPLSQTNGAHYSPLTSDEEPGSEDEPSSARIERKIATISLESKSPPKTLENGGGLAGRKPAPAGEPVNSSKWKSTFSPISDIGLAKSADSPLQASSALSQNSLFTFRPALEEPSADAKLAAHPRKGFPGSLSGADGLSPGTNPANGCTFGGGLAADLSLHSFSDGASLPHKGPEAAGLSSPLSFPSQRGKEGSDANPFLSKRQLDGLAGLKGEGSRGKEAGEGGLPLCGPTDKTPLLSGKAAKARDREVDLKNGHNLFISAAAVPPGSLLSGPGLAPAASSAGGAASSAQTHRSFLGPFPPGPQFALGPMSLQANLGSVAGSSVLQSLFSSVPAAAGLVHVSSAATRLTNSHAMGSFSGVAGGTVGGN

Take `CN(C)CCCNC(=O)c1ccc2c(Nc3ccc(CN)cc3)ncnc2c1`: the inhibition result in assay [1], in [3], in assay [4], in assay [5], in [6] and in [7] was “Active” in each case. The inhibition entry in assay [10] was “Active”. Further, the inhibition was < 25% in assay [2], 0% in assay [8] and < 25% in assay [9].

As for `CC(C)Oc1ccc(-c2c[nH]cc2CNCCN)cc1`, the IC50 in [11] stood at 119 nM; in assay [12], 30 nM; in assay [13] it was 4 nM; in assay [14], 5 nM; in assay [15], 83 nM.
